Reference: patent US9949489B2, “Methods for control of hemipteran insect stylet sheath structure formation” (The United States of America, as Represented by the …, priority 2015, dated 2018)

Key:
D. citri [1] = assay: Liquid ACP diet sandwich feeding assay (MFC): inhibition of de novo stylet sheath formation; format: in vivo, Diaphorina citri; conditions: about 24 h; cellulase approx 1 unit/μl; BAPN 100 mM; EDTA approx 2 mM; proteases per Table 5
Protocol: The next step was to determine if addition of cellulase to the diet of D. citri would interfere with stylet sheath formation. A D. citri diet is prepared as described by Hall, David et al., “Research toward an artificial diet for adult Asian citrus psyllid,” Annals of the Entomological Society of America 103.4:611-617 (2010). Approximately 25 D. citri were collected into polystyrene Cellstar 35 mm×10 mm dishes (Griener Bio-One, Monroe, N.C.) that were then sealed using a single layer of Parafilm® M (Pechiney Plastic Packaging Company, Chicago, Ill.). Approximately 99 μl of liquid ACP diet (e.g., diet lacking the solidifying agar component, see Hall, et. al., 2010, supra) was mixed with approximately 1 μl of cellulase (Sigma Aldrich, St. Louis, Mo.) and mixed. […] layer Parafilm® M surface, which was then covered with another layer of Parafilm® M to form a sandwich (e.g., Parafilm® M—liquid ACP diet with cellulase—Parafilm® M) to allow ACP to feed into the liquid ACP diet containing cellulase. This MFC was then incubated at about 25° C., at about 75% relative humidity, with a light:dark cycle of approximately 14:10 hours for a period of about 24 hours. After about 24 hours, the stylet sheaths were observed using an inverted microscope. FIGS. 3G through 3I are images of three separate locations where D. citri made attempts to feed into the liquid ACP diet containing approximately 1 unit/μl cellulase.
Because many biomolecule polymerizing enzymes require divalent cations as cofactors, the effect of ethylenediaminetetraacetic acid (EDTA), a chelator of divalent cations, on ACP SS formation was tested by adding EDTA to the previously described liquid ACP diet (see Hall et al., 2010, supra). The EDTA was added to the liquid ACP diet at a concentration of approximately 2 mM EDTA in diH2O. Approximately 200 D. citri were placed in plastic Petri dishes. The dishes were covered with a single layer of Parafilm® M to form MFC. […] The MFC plates were incubated at a temperature of about 25° C., a relative humidity of about 75%, and a light/dark cycle of about 14:10 hours duration. Following the 24-hour incubation, the fluid (either liquid ACP diet containing EDTA or just the liquid ACP diet) between the two sheets of plastic was harvested by using a sterile 5 ml syringe and 20-gauge needle which was pushed into the center of the Parafilm® M-fluid-Parafilm® M sandwich, and the fluid was then removed by syringe plunger suction. The harvested fluids were put into sterile 50 ml conical vials, placed at about −80° C. until frozen. Each vial of harvested fluid was then lypholyzed overnight. The lyophilized product was then solubilized in […], placed at about −80° C. until frozen, then each new vial was lyopholyzed overnight. The lyophilized product was then solubilized in approximately 15 μL of approximately 1× Laemmili buffer (Bio-Rad, Hercules, Calif.) containing approximately 5% 2-mercaptoethanol. The sample was loaded onto a sodium dodecyl sulfate polyacrylamide gel (SDS-PAGE) and underwent electrophoresis. The SDS PAGE gel was then stained with coomassie. Uncommon bands between the liquid ACP diet containing EDTA and liquid ACP diet without EDTA (negative control) lanes were cut out and analyzed by Orbitrap (Thermo Scientific, Waltham, Mass.) protein analysis, according to manufacturer's protocol.
After about 24-hour incubation, D. citri feeding sites were observed. […] See also Table 2 and Table 3, infra.

[2] = test system: D. citri stylet sheaths (ACP SSs); assay: Degradation of preformed, solidified stylet sheaths by enzymes (MFC membrane or slide incubation); parameters: species or system Diaphorina citri; key to Sheath Degradation: −: No effect apparent; +/−: inconclusive; +: apparent slight effect; ++: increased apparent effect; +++: high effect; ++++: very high effect; +++++: complete degradation of sheaths or inhibition of sheath synthesis; conditions: D. citri preformed sheaths; enzyme concentration, pH and temperature per Table 4 (cellulase 1:25, pH 6.0, 60° C.)
Protocol: In order to test cellulase's effect on preformed ACP SSs, formed, solidified stylet sheaths were harvested directly from the surface of an MFC membrane (in these experiments either plastic wrap or parafilm was used) as described herein and in Morgan et al. 2013, supra. Approximately 100 psyllids were placed into an MFC for about 24 hours. The MFCs consisted of D. citri caged individually and/or in groups within 100 mm×15 mm plastic Petri dishes. A single kitchen plastic wrap layer was stretched across the top of each Petri dish to seal the Petri dish from insect escape and to provide a stylet penetrable surface for insect probing.
Several MFCs (the Petri dishes covered with kitchen plastic wrap or parafilm and containing D. citri) were placed into clear Pyrex® baking dishes with the membrane (kitchen plastic wrap or parafilm) side up, and the Pyrex® baking dish is covered with a single layer of clear kitchen plastic wrap to prevent external contaminant interactions with the membrane surface during incubation. MFCs were incubated at a temperature of about 25° C., relative humidity of about 75%, and a light:dark cycle of about […]. […]

D. citri [3] = assay: Liquid ACP diet sandwich feeding assay (MFC): inhibition of de novo stylet sheath formation; format: in vivo, Diaphorina citri; parameters: key: −: No effect apparent; +/−: inconclusive; +: apparent slight effect; ++: increased apparent effect; +++: high effect; ++++: very high effect; +++++: complete degradation of sheaths or inhibition of sheath synthesis; conditions: enzyme in liquid ACP diet, about 24 h, 25° C., enzyme amounts and pH per Table 5 (cellulase approx 1 unit/μl)
Protocol: The next step was to determine if addition of cellulase to the diet of D. citri would interfere with stylet sheath formation. A D. citri diet is prepared as described by Hall, David et al., “Research toward an artificial diet for adult Asian citrus psyllid,” Annals of the Entomological Society of America 103.4:611-617 (2010). Approximately 25 D. citri were collected into polystyrene Cellstar 35 mm×10 mm dishes (Griener Bio-One, Monroe, N.C.) that were then sealed using a single layer of Parafilm® M (Pechiney Plastic Packaging Company, Chicago, Ill.). Approximately 99 μl of liquid ACP diet (e.g., diet lacking the solidifying agar component, see Hall, et. al., 2010, supra) was mixed with approximately 1 μl of cellulase (Sigma Aldrich, St. Louis, Mo.) and mixed. […]
Because many biomolecule polymerizing enzymes require divalent cations as cofactors, the effect of ethylenediaminetetraacetic acid (EDTA), a chelator of divalent cations, on ACP SS formation was tested by adding EDTA to the previously described liquid ACP diet (see Hall et al., 2010, supra). […] Uncommon bands between the liquid ACP diet containing EDTA and liquid ACP diet without EDTA (negative control) lanes were cut out and analyzed by Orbitrap (Thermo Scientific, Waltham, Mass.) protein analysis, according to manufacturer's protocol. […]

Chymopapain from papaya latex: Cysteine peptidase; Sigma #C8526
Effect on D. citri stylet sheath formation in liquid ACP diet (D. citri [1]): capable of inhibiting the formation of ACP SSs
Sheath Degradation [2]: +++++
Inhibition of Sheath Formation (D. citri [3]): +++++
